Assays:
[1] = Isokinetic squat peak force on mechanized squat device; type: in vivo, human; conditions: for PFCON ES (d) / PFECC ES (d): Cohen's d baseline vs week 8; for PFCON Δ (%) / PFECC Δ (%): change baseline to week 8 relative to baseline; for PFCON (N) Week 4 / PFCON (N) Week 8: concentric peak force; for PFCON (N) Week 4 / PFCON (N) Week 8 / PFECC (N) Week 4 / PFECC (N) Week 8: mean ± SE; for PFECC (N) Week 4 / PFECC (N) Week 8: eccentric peak force; for PFCON (N) Δ / PFECC (N) Δ: week 8 minus baseline
Description: Assessments of muscular performance took place between 12:00 and 18:00 in the non-fasted state, and participants were instructed to follow their preferred food and fluid intake patterns prior to testing. The assessment began with a 5-minute warm up period using a self-selected pace on a stationary bicycle. This warm up period was followed by assessment of countermovement vertical jumps (CMVJ) performance, testing on a mechanized squat device, and muscular strength and endurance assessment on the bench press and hip sled exercises. At the 4-week assessment, the CMVJ and hip sled assessments were not performed.
Isometric and isokinetic squats were performed using a mechanized squat device (Exerbotics eSq, Tulsa, Okla., USA) (31, 32). At the first assessment, each participant's preferred foot positioning was determined using a custom grid overlaid on the foot platform of the squat device. This foot positioning was recorded and utilized for all visits. No weight belts, knee wraps, or other aids were utilized during testing. Prior to testing, the participant's range of motion for isokinetic testing was determined. The range of motion was set to 90° between the thigh and lower leg at the bottom of the repetition and approximately 170° at the top of the repetition, as determined by a goniometer. The isometric testing included maximal effort pushes at 120° and 150° knee angles. Each participant was instructed to push against the device as hard and fast as possible while attempting to complete a squat movement. Two isometric pushes were performed at each knee angle, and each effort lasted approximately 2 to 3 seconds. After the isometric testing, a 3-repetition maximum isokinetic force production test was completed. Prior to testing, participants observed the movement of the machine and received verbal instruction regarding proper performance of the assessment. Each of the repetitions during the maximal isokinetic force production test consisted of a 4-second eccentric phase, followed by an approximately half-second pause at the 90° knee position and a 4-second concentric phase. During testing, the force signal was sampled from the load cell at 1 kHz (MP100; Biopac Systems, Inc, Santa Barbara, Calif., USA), stored on a personal computer, and processed off-line using custom-written software (LabVIEW, Version 11.0; National Instruments, Austin, Tex., USA). The scaled force signal was low-pass filtered, with a 10-Hz cutoff (zero-phase lag, fourth-order Butterworth filter). All subsequent analyses were conducted on the scaled and filtered force signal. For the isometric force production tests, the rate of force development (RFD) over specific time intervals (i.e. 30, 50, 100 and 200 ms) was calculated by manually specifying the onset of force production within the custom LabVIEW program. For each repetition of the maximum isokinetic force production test, isokinetic peak forces (PF) were determined as the highest mean 25-ms epoch for both concentric and eccentric testing (i.e. PFCONC and PFECC).

[2] = Resting energy expenditure and substrate utilization (RQ) via indirect calorimetry; type: in vivo, human; conditions: for RMR Δ / RMR Δ (%) / RQ Δ / RQ Δ (%): baseline to W 8; for RMR ES (d) / RQ ES (d): effect size
Method: REE and substrate utilization were assessed via indirect calorimetry (TrueOne 2400. ParvoMedics, Sandy, Utah, USA). Gas and flow calibrations were performed each morning according to manufacturer specifications, and the pre-assessment procedures of Compher et al. (34) were utilized. Participants were instructed to remain motionless but awake during the assessment, which took place in a climate-controlled room with the lights dimmed. The first five minutes of each test were discarded, and the assessment continued until there was a period of 5 consecutive minutes with a coefficient of variation (CV) for REE of ≤5%. The average CV for REE in the present study was 3.2±1.1% (mean±SD).

[3] = approximate; cited from earlier work

## CC(C)(O)CC(=O)O [TRFHMB, β-hydroxy-β-methylbutyrate]
[1]; Cohen's d, vs 0.3-0.4 in TRF or CD
  Average effect size for tests of lower body force generation (1RMLP, PFCON, PFECC, RFD): 0.6-0.7
[1]; ITT analysis
  PFCON ES (d): 0.83
  PFECC ES (d): 0.60
  PFCON Δ (%): 29%
  PFECC Δ (%): 19%
  PFCON (N) Week 4: 1195 ± 92 N
  PFCON (N) Week 8: 1324 ± 112 N
  PFECC (N) Week 4: 1301 ± 93 N
  PFECC (N) Week 8: 1407 ± 95 N
  PFCON (N) Δ: 295 N
  PFECC (N) Δ: 223 N
[1]; PP analysis
  PFCON ES (d): 0.95
  PFECC ES (d): 0.48
  PFCON Δ (%): 31%
  PFECC Δ (%): 14%
  PFCON (N) Week 4: 1247 ± 133 N
  PFCON (N) Week 8: 1418 ± 154 N
  PFECC (N) Week 4: 1311 ± 136 N
  PFECC (N) Week 8: 1475 ± 133 N
  PFCON (N) Δ: 336 N
  PFECC (N) Δ: 184 N
[2]; ITT, Baseline
  RMR: 1466 ± 48 kcal/day
  RQ: 0.82 ± 0.02 au
[2]; ITT, W 8
  RMR: 1481 ± 44 kcal/day
[2]; ITT
  RMR Δ: 15 kcal/day
  RMR Δ (%): 1%
  RQ Δ: −0.03 au
  RQ Δ (%): −4%
  RMR ES (d): 0.09
  RQ ES (d): −0.42
[2]; PP, Baseline
  RMR: 1472 ± 61 kcal/day
  RQ: 0.81 ± 0.03 au
[2]; PP, W 8
  RMR: 1519 ± 57 kcal/day
  RQ: 0.78 ± 0.02 au
[2]; PP
  RMR Δ: 47 kcal/day
  RMR Δ (%): 3%
  RQ Δ: −0.03 au
  RQ Δ (%): −4%
  RMR ES (d): 0.30
  RQ ES (d): −0.44
[2]; versus baseline
  Resting metabolic rate change: +47 kcal/d
  Resting metabolic rate change (%): 3%
[3]
  Loss of HMB to urine after HMB is fed: 20-50%
